{"source": "patent US8357659B2", "about": "“Method of treating pain or itching with APETx2 peptide toxin” (priority 2008, dated 2013)", "key": {"human ASIC3 channels": {"target": "T1, human ASIC3 channels (Homo sapiens, UniProt Q9UHC3)", "T1 construct": "expressed in transfected cells; host or cells: F-11 cells, vector pASIC3h-IRES-EGFP, JetPEI", "T1 sequence (Q9UHC3 1-531)": "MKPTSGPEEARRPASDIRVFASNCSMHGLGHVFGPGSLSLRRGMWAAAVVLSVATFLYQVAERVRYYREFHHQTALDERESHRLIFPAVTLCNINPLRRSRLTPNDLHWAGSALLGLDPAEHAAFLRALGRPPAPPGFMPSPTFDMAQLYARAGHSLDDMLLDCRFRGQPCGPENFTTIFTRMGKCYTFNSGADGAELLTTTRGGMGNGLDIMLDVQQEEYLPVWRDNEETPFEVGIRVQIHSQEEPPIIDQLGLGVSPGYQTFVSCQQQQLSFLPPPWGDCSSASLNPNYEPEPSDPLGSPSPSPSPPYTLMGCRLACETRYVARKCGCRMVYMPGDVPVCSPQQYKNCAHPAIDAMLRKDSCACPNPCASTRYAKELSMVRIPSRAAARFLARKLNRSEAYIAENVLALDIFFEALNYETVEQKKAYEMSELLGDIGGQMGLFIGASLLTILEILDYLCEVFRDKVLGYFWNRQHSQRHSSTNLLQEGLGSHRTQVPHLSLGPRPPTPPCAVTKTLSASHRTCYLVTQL", "assay": "Whole cell patch clamp of human ASIC3 in transfected F-11 cells", "format": "cell-based", "conditions": "APETx2 at 1 μM; acidification pH 8.0 to pH 7.0", "procedure": "F-11 cells (refs. 44, 45, 46, 47]) were cultured in 5% of CO2 at a density of 50,000 cells per 35 mm Petri dish. The culture medium contained HAM F-12 medium (Invitrogen) supplemented with 15% foetal bovine serum (ICN Biomedicals), 1×HAT (sodium hypoxanthine, aminopterine and thymidine), 200 μg/ml of allo-4-hydroxy-L-proline (Sigma-Aldrich) and 1% antibiotics. One day after seeding, the cells were transfected with ASIC1a or ASIC3 DNAc (rat clones) using Lipofectamine™ (Invitrogen) according to the manufacturer's instructions using the vectors pCI-ASIC1ar+pIRES2-EGFP (ratio 1:2) or pCI-ASIC3r+pIRES2-EGFP (ratio 1:10) ([ref. 36]), quoted above). For the experiments concerning the human ASIC3 clone (refer to experiments on the effects of the APETx2 toxin on the human form of the ASIC3 channel), the cells were transfected with the DNAc of human ASIC3 using the transfection agent JetPEI (Polypus Transfection) according to the manufacturer's instructions with the aid of the vector pASIC3h-IRES-EGFP. […]\nThe whole cell configuration of the patch clamp method was used ([ref. 48]) in order to measure the membrane currents (imposed voltage) or the membrane potentials (imposed current). […] The data were sampled at 10 kHz, digitised using a Digidata 1322A A-D/D-A converter (Axon Instruments) and recorded on a hard disk using pClamp software (version 9.2.0.11, Axon Instruments). […]"}, "ASIC1a": {"target": "T2, ASIC1a (Rattus norvegicus, UniProt P55926)", "T2 sequence (P55926 1-526)": "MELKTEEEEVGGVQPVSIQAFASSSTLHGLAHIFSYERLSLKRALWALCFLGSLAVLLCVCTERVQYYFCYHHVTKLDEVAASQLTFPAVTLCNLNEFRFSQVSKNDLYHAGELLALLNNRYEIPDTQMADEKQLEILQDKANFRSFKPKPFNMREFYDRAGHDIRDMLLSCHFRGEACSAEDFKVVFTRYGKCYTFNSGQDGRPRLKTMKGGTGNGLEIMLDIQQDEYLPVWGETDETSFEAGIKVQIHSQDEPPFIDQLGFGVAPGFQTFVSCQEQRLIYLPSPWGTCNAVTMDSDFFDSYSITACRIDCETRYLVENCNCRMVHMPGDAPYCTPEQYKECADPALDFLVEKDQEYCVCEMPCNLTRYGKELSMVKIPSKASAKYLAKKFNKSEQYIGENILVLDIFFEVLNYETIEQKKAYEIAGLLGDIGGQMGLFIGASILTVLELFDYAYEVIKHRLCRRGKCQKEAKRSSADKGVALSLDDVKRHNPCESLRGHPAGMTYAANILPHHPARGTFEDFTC", "conditions": "cited from earlier work"}}}
{"substance": "peptide of 42 amino acids (SEQ ID NO: 3), three disulphide bonds, from sea anemone Anthopleura elegantissima; blocks ASIC3 [APETx2]", "values": [{"measurement": "amplitude of the human ASIC3 currents", "setting": "human ASIC3 channels", "value": "significantly reduced"}, {"measurement": "effect on ASIC1a isoform", "setting": "ASIC1a", "value": "does not have any effect"}]}
